test system: myostatin gene expression in C2C12 cells; test: Inhibition of myostatin expression in C2C12 cells (qPCR); format: cell-based; conditions: Mus musculus, percentage myostatin gene expression in cells in contact with the compounds related to control cells, C2C12, 6 h
Description: After several experiments in which the C2C12 cells differentiated into myotubes were incubated in the presence of IGF-1 or 20E for 2 h 30 or 6 h, two screening tests were developed. Thus, the phosphorylation of the S6 protein kinase and the expression of the myostatin gene were studied in order to determine their modulation by a growth hormone or an ecdysone and to characterize these modulations from a statistical point of view. The C2C12 myoblast cells (ATCC CRL-1772) are seeded into 24-well plates at a density of 30 000 cells per well and cultured in a DMEM medium containing glucose in a proportion of 4.5 g/l and supplemented with fetal calf serum (10%) and with antibiotics (penicillin and streptomycin). Forty-eight hours later, the myoblasts are induced to differentiate by partial serum depletion (2% instead of 10%) for 5 days. The cells are then placed in a medium which is glucose-depleted (DMEM containing 1 g/l of glucose) and serum-free in the presence of the test molecules or of the references (100 ng/ml IGF-1 or 10 μ[…]) for 6 h. At the end of the experiment, the messenger RNAs (mRNAs) are extracted using the conventional methodology based on phenol and chloroform. Briefly, the cells are lysed in a Trizol solution (Sigma T9424) containing a strong acid and phenol. The mRNAs are separated from the proteins by addition of chloroform and then centrifugation. They are then precipitated from isopropanol and then suspended at a concentration of 1 μg/μl in an […] ultrapure water. 1 μg of mRNA is then converted by reverse transcription into complementary DNA by the AMV enzyme in the presence of a primer and of a mixture of nucleotides according to the protocol given by the supplier (Applied Biosystems 4368814). […] The qPCRs are carried out on a 7900HT Fast real-Time PCR detection system (Applied Biosystems). The programming conditions are standard and consist of 1 cycle at 95° C. for 15 min, followed by 40 cycles at 95° C. for 15 s and at 60° C. for 1 min and the program ends with a melt curve step between 60° C. and 95° C. […] Fluorescent probes bind to the double-stranded DNA and are fluorescent only once bound to the DNA. A fluorescence threshold is established by the machine's program. When the amount of DNA allows the fluorescent probe to exceed this threshold, a PCR cycle number, called “Ct” for “Cycle Threshold”, is obtained. It is this value which forms the basis of the calculations to quantify the DNA relatively. A ratio R is established between the amount of starting DNA of a sample and that of a control, which has not undergone treatment (i.e. […] R=2^-ΔΔCt).

| SMILES | mrna remaining at 10 µM |
| --- | --- |
| CC([C@H]1CC[C@@]2(O)C3=CC(=O)[C@@H]4C[C@@H](O)[C@@H](O)C[C@]4(C)C3CC[C@]12C)N(CC(F)F)C(=O)C1CC1 (stereo partly drawn) [Compound 68, N-(2,2-difluoroethyl)-N-[1-[(2S,3R,5R,10R,13R,14S,17S)-2,3,14-trihydroxy-10,13-dimethyl-6-oxo-2,3,4,5,9,11,12,15,16,17-decahydro-1H-cyclopenta[a]phenanthren-17-yl]ethyl]cyclopropanecarboxamide] | < 70% |
| C[C@]12C[C@H](O)[C@H](O)C[C@H]1C(=O)C=C1C2CC[C@]2(C)[C@@H](C(O)CN3CCC(CCO)CC3)CC[C@@]12O (stereo partly drawn) [Compound 99, (2S,3R,5R,10R,13R,14S,17S)-2,3,14-trihydroxy-17-[1-hydroxy-2-[4-(2-hydroxyethyl)-1-piperidyl]ethyl]-10,13-dimethyl-2,3,4,5,9,11,12,15,16,17-decahydro-1H-cyclopenta[a]phenanthren-6-one] | < 70% |
| C/C(=N/OCCN1CCCC1)[C@H]1CC[C@@]2(O)C3=CC(=O)[C@@H]4C[C@@H](O)[C@@H](O)C[C@]4(C)C3CC[C@]12C (stereo partly drawn) [Compound 36, (2S,3R,5R,10R,13R,14S,17S)-2,3,14-trihydroxy-10,13-dimethyl-17-(C-methyl-N-(2-pyrrolidin-1-ylethoxy)carbonimidoyl)-2,3,4,5,9,11,12,15,16,17-decahydro-1H-cyclopenta[a]phenanthren-6-one] | 71 to 85% |
| COC(CN(C)C(C)[C@H]1CC[C@@]2(O)C3=CC(=O)[C@@H]4C[C@@H](O)[C@@H](O)C[C@]4(C)C3CC[C@]12C)OC (stereo partly drawn) [Compound 79, (2S,3R,5R,10R,13R,14S,17S)-17-[1-(2,2-dimethoxyethyl(methyl)amino)ethyl]-2,3,14-trihydroxy-10,13-dimethyl-2,3,4,5,9,11,12,15,16,17-decahydro-1H-cyclopenta[a]phenanthren-6-one] | < 70% |
| CO/N=C1\C=C2C(CC[C@]3(C)[C@@H](/C(CN4CCOCC4)=N\OC)CC[C@@]23O)[C@@]2(C)C[C@H](O)[C@H](O)C[C@@H]12 (stereo partly drawn) [Compound 101, (2S,3R,5R,6E,10R,13R,14S,17S)-6-methoxyimino-17-(N-methoxy-C-(morpholinomethyl)carbonimidoyl)-10,13-dimethyl-2,3,4,5,9,11,12,15,16,17-decahydro-1H-cyclopenta[a]phenanthrene-2,3,14-triol] | < 70% |
| CC([C@H]1CC[C@@]2(O)C3=CC(=O)[C@@H]4C[C@@H](O)[C@@H](O)C[C@]4(C)C3CC[C@]12C)N(CC(F)F)C(=O)OC(C)(C)C (stereo partly drawn) [Compound 71, Tert-butyl N-(2,2-difluoroethyl)-N-[1-[(2S,3R,5R,10R,13R,14S,17S)-2,3,14-trihydroxy-10,13-dimethyl-6-oxo-2,3,4,5,9,11,12,15,16,17-decahydro-1H-cyclopenta[a]phenanthren-17-yl]ethyl]carbamate] | < 70% |
| CC([C@H]1CC[C@@]2(O)C3=CC(=O)[C@@H]4C[C@@H](O)[C@@H](O)C[C@]4(C)C3CC[C@]12C)N(C(=O)c1ccc(C#N)cc1)C1CC1 (stereo partly drawn) [Compound 56, 4-cyano-N-cyclopropyl-N-[1-[(2S,3R,5R,10R,13R,14S,17S)-2,3,14-trihydroxy-10,13-dimethyl-6-oxo-2,3,4,5,9,11,12,15,16,17-decahydro-1H-cyclopenta[a]phenanthren-17-yl]ethyl]benzamide] | 71 to 85% |
| COCCO/N=C(/C)[C@H]1CC[C@@]2(O)C3=CC(=O)[C@@H]4C[C@@H](O)[C@@H](O)C[C@]4(C)C3CC[C@]12C (stereo partly drawn) [Compound 29, (2S,3R,5R,10R,13R,14S,17S)-2,3,14-trihydroxy-17-(N-(2-methoxyethoxy)-C-methylcarbonimidoyl)-10,13-dimethyl-2,3,4,5,9,11,12,15,16,17-decahydro-1H-cyclopenta[a]phenanthren-6-one] | < 70% |
| COC(CN(C(=O)c1ccco1)C(C)[C@H]1CC[C@@]2(O)C3=CC(=O)[C@@H]4C[C@@H](O)[C@@H](O)C[C@]4(C)C3CC[C@]12C)OC (stereo partly drawn) [Compound 60, N-(2,2-dimethoxyethyl)-N-[1-[(2S,3R,5R,10R,13R,14S,17S)-2,3,14-trihydroxy-10,13-dimethyl-6-oxo-2,3,4,5,9,11,12,15,16,17-decahydro-1H-cyclopenta[a]phenanthren-17-yl]ethyl]furan-2-carboxamide] | 71 to 85% |
| CC([C@H]1CC[C@@]2(O)C3=CC(=O)[C@@H]4C[C@@H](O)[C@@H](O)C[C@]4(C)C3CC[C@]12C)N(Cc1cccnc1)C(=O)c1ccco1 (stereo partly drawn) [Compound 73, N-(3-pyridylmethyl)-N-[1-[(2S,3R,5R,10R,13R,14S,17S)-2,3,14-trihydroxy-10,13-dimethyl-6-oxo-2,3,4,5,9,11,12,15,16,17-decahydro-1H-cyclopenta(a)phenanthren-17-yl]ethyl]furan-2-carboxamide] | 71 to 85% |
| C=CC(=O)N(CC1CCCO1)C(C)[C@H]1CC[C@@]2(O)C3=CC(=O)[C@@H]4C[C@@H](O)[C@@H](O)C[C@]4(C)C3CC[C@]12C (stereo partly drawn) [Compound 48, N-(tetrahydrofuran-2-ylmethyl)-N-[1-[(2S,3R,5R,10R,13R,14S,17S)-2,3,14-trihydroxy-10,13-dimethyl-6-oxo-2,3,4,5,9,11,12,15,16,17-decahydro-1H-cyclopenta[a]phenanthren-17-yl]ethyl]prop-2-enamide] | 71 to 85% |
| CO/N=C1/C=C2C3=CC[C@H](C(C)=NO)[C@@]3(C)CCC2[C@@]2(C)C[C@H](O)[C@H](O)C[C@@H]12 (stereo partly drawn) [Compound 7, 1-[(2S,3R,5R,6Z,10R,13R,17S)-2,3-dihydroxy-6-methoxyimino-10,13-dimethyl-1,2,3,4,5,9,11,12,16,17-decahydrocyclopenta[a]phenanthren-17-yl]ethanone oxime] | < 70% |
| CC(=NOCC(=O)O)[C@H]1CCC2C3=CC(=O)[C@@H]4C[C@@H](O)[C@@H](O)C[C@]4(C)C3CC[C@@]21C (stereo partly drawn) [Compound 4, 2-[1-[(2S,3R,5R,10R,13S,17S)-2,3-dihydroxy-10,13-dimethyl-6-oxo-1,2,3,4,5,9,11,12,14,15,16,17-dodecahydrocyclopenta[a]phenanthren-17-yl]ethylideneamino]oxyacetic acid] | < 70% |
| C[C@@H]1CN(CC(=O)[C@H]2CC[C@@]3(O)C4=CC(=O)[C@@H]5C[C@@H](O)[C@@H](O)C[C@]5(C)C4CC[C@]23C)C[C@H](C)O1 (stereo partly drawn) [Compound 83, (2S,3R,5R,10R,13R,14S,17S)-17-[2-[(2S,6R)-2,6-dimethylmorpholin-4-yl]acetyl]-2,3,14-trihydroxy-10,13-dimethyl-2,3,4,5,9,11,12,15,16,17-decahydro-1H-cyclopenta[a]phenanthren-6-one] | 71 to 85% |
| CC([C@H]1CC[C@@]2(O)C3=CC(=O)[C@@H]4C[C@@H](O)[C@@H](O)C[C@]4(C)C3CC[C@]12C)N(CC1CCCO1)C(=O)C1CC1 (stereo partly drawn) [Compound 47, N-(tetrahydrofuran-2-ylmethyl)-N-[1-[(2S,3R,5R,10R,13R,14S,17S)-2,3,14-trihydroxy-10,13-dimethyl-6-oxo-2,3,4,5,9,11,12,15,16,17-decahydro-1H-cyclopenta[a]phenanthren-17-yl]ethyl]cyclopropanecarboxamide] | < 70% |
| C/C(=N/OCCOc1ccccc1)[C@H]1CC=C2C3=CC(=O)[C@@H]4C[C@@H](O)[C@@H](O)C[C@]4(C)C3CC[C@@]21C (stereo partly drawn) [Compound 33, (2S,3R,5R,10R,13R,17S)-2,3-dihydroxy-10,13-dimethyl-17-(C-methyl-N-(2-phenoxyethoxy)carbonimidoyl)-1,2,3,4,5,9,11,12,16,17-decahydrocyclopenta[a]phenanthren-6-one] | < 70% |

Source: US10316056B2, “Chemical compounds and use thereof for improving muscular quality” (BIOPHYTIS, priority 2014, dated 2019)
